Results reported in ChEMBL document CHEMBL4411291, “Synthesis and anti-tumor activity of imidazopyrazines as TAK1 inhibitors” (Eur J Med Chem, 2019).

Legend:
[1] = target: T1, Mitogen-activated protein kinase kinase kinase 7 (Homo sapiens) (UniProt O43318); test: Inhibition of TAK1 (unknown origin) at 0.1 uM by LanthaScreen Eu kinase binding assay relative to control
T1 sequence (whole entry): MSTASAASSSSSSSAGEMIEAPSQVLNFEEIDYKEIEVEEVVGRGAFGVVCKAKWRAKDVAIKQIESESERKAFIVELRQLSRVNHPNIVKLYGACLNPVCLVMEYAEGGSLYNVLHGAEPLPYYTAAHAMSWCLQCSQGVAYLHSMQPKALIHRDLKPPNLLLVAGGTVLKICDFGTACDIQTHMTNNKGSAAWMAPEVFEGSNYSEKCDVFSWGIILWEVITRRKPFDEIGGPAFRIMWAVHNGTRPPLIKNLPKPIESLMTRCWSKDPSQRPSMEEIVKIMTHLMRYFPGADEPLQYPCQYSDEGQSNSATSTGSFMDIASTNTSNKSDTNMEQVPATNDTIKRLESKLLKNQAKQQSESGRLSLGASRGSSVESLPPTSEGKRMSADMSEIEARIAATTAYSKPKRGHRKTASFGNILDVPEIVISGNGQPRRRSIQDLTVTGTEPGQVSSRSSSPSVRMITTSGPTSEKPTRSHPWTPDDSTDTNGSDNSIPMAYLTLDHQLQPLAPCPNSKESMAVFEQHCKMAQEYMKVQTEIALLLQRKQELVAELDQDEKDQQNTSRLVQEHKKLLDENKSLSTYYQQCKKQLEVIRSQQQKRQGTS

[2] = target: T1, Mitogen-activated protein kinase kinase kinase 7 (Homo sapiens); test: Inhibition of TAK1 (unknown origin) at 1 uM by LanthaScreen Eu kinase binding assay relative to control
[3] = target: TAK1/TAB1 (Homo sapiens, UniProt O43318); test: Inhibition of N-terminal His-tagged human TAK1 (1 to 303 amino acids)/human TAB1 (437 to 504 amino acids) expressed in baculovirus expression system using fluorescence-labeled substrate by off-chip mobility shift assay
[4] = Oral bioavailability in ICR mouse at 10 mg/kg administered as single dose by LC-MS/MS analysis; assay type: ADME, organism-based; details: in vivo
[5] = tested on: SW-620; test: Growth inhibition of human SW620 cells after 96 hrs by SRB assay; assay type: functional, cell-based; details: SW-620, 96 h
[6] = Stability in human plasma assessed as parent compound remaining after 6 hrs by LC-MS/MS analysis; assay type: ADME, cell-free; details: read-out: Stability
[7] = Half life in ICR mouse at 10 mg/kg, po administered as single dose or 3 mg/kg, iv by LC-MS/MS analysis; assay type: ADME, organism-based; details: in vivo
[8] = Cmax in ICR mouse at 10 mg/kg, po administered as single dose or 3 mg/kg, iv by LC-MS/MS analysis; assay type: ADME, organism-based; details: in vivo
[9] = Stability in human liver microsomes assessed as parent compound remaining after 60 mins in presence of NADPH by HPLC analysis; assay type: ADME, Microsome; details: read-out: Stability
[10] = Stability in mouse liver microsomes assessed as parent compound remaining after 60 mins in presence of NADPH by HPLC analysis; assay type: ADME, Microsome; details: read-out: Stability
[11] = AUC (0 to 7 hrs) in ICR mouse at 10 mg/kg, po administered as single dose or 3 mg/kg, iv by LC-MS/MS analysis; assay type: ADME, organism-based; details: in vivo
[12] = Stability in mouse plasma assessed as parent compound remaining after 6 hrs by LC-MS/MS analysis; assay type: ADME, cell-free; details: read-out: Stability

Chain of TAK1/TAB1 (Q15750 whole entry, one chain of several, the tested form may be a part): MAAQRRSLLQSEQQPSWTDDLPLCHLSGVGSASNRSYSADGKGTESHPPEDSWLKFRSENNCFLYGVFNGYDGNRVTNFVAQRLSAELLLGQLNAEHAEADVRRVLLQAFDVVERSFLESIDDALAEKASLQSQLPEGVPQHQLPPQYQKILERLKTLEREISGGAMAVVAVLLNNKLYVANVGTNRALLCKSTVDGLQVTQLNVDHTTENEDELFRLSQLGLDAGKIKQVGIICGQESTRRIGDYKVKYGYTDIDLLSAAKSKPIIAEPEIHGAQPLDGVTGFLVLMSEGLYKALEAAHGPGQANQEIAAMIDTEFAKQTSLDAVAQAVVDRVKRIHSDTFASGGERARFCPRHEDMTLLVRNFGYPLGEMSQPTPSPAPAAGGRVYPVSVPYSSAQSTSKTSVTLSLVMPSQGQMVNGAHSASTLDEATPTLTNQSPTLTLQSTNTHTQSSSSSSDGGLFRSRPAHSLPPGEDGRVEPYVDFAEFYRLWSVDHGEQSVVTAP

inhibition [1] | inhibition [2] | Structure (SMILES) | also measured
43% | 89% | Cc1cc(NC(=O)Nc2cc(C(C)(C)C)nn2-c2cccnc2)ccc1-c1cnc(NC2CC2)c2nccn12 | –
19% | 84% | Cc1cc(NC(=O)Nc2cc(C(C)(C)C)nn2-c2ccc(C#N)cc2)ccc1-c1cnc(NC2CC2)c2nccn12 | –
36% | 92% | Cc1cc(NC(=O)Nc2cc(C(C)(C)C)nn2-c2cccc(C#N)c2)ccc1-c1cnc(NC2CC2)c2ncnn12 | –
24% | 80% | Cc1cc(NC(=O)Nc2cc(C(C)(C)C)nn2-c2ccccc2)ccc1-c1cnc(NC2CC2)c2ncnn12 | –
16% | 84% | Cc1cc(NC(=O)Nc2cc(C(C)(C)C)nn2-c2cccc(Cl)c2)ccc1-c1cnc(NC2CC2)c2nccn12 | –
49% | 97% | Cc1cc(NC(=O)Nc2cc(C(C)(C)C)nn2-c2cccc(C#N)c2)ccc1-c1cnc(NC2CC2)c2nccn12 | IC50 [3]: 0.041 µM; bioavailability [4]: 3.1%; IC50 [5]: 0.169 µM; remaining at 6 h [6]: 100%; half-life [7]: 2.4 h; Cmax [8]: 231 ng/mL; remaining at 1 h [9]: 33%; remaining at 1 h [10]: 37%; AUC(0-t) [11]: 360 ng·h/mL; remaining at 6 h [12]: 88%
0% | 30% | Cc1cc(NC(=O)Nc2cc(C(C)(C)C)nn2-c2ccccc2)ccc1Oc1cn2ccnc2c(NC2CC2)n1 | –
0% | 0% | Cc1ccc(C(=O)Nc2cc(C(C)(C)C)nn2-c2ccccc2)cc1Oc1cnc(NC2CC2)c2nccn12 | –
4% | 3% | Cc1cc(C(=O)Nc2cc(C(C)(C)C)nn2-c2ccccc2)ccc1Oc1cnc(NC2CC2)c2nccn12 | –
